Measured values: patent publication US10035780B2, “Quinazoline scaffold based compounds, pharmaceutical compositions and methods of use thereof” (TECHNION RESEARCH & DEVELOPMENT FOUNDATION LTD., priority 2014, dated 2018)
“Also recorded” adds a separate entry of the source. Where two headings read alike, the source gives them in different places.

Legend:
TSPO = TSPO (Homo sapiens (Human), UniProt P30536); assay type: binding; conditions: displacement of [3H]PK 11195 from TSPO
Experimental: Briefly, the assay utilizes radioactive standard ligand [^3H] PK 11195 (1-(2-chlorophenyl)-N-methyl-N-(1-methyl-propyl)-3 isoquinolinecarboxamide), and measures the ability of the compounds of the invention to displace standard ligand in binding to TSPO. Total radioactive binding was determined by measuring the radioactivity of the radioactive ligand-receptor complex, obtained in the reaction of radioactive standard with the TSPO. Radioactive standard and the examined compound were added to the TSPO and after some incubation time the radioactivity of the resulting ligand-receptor complexes was measured with the help of a […]. This radioactivity indicates the binding of the radioactive standard to TSPO. […] This can be expressed as the half maximal inhibitory concentration (IC50), which is a measure of the effectiveness of a compound in inhibiting biological or biochemical function, in this case inhibiting binding of standard radioactive ligand binding to the TSPO. A derivative of the IC50 is the Ki, which is the calculated binding affinity of the novel compound to the TSPO.
Binding to TSPO was evaluated using a [^3H]PK 11195 radio-assay, as described above.

U118MG cells [1] = experiment: Collapse of the mitochondrial membrane potential (ΔΨm) induced by glutamate; assay type: cell-based, human; conditions: glutamate exposed cells
Source text: (§1) Techniques and parameters assayed are summarized here: Total protein levels (Bradford. Anal Biochem. 1976; 72:248-54); TSPO ligand binding assays (Kugler et al. 2008; Levin et al. 2005; Danovich et al. Eur Neuropsychopharmacol. 2008; 18:24-33) cell death, including apoptosis and necrosis and related molecular biological processes (Soustiel et al. Neuropathol Appl Neurobiol. 2008; 34:412-23; Soustiel et al. Exp Neurol. 2008; 214:201-8; Zeno et al. 2009); mitochondrial transmembrane potential collapse (Chelli et al. Biochem Pharmacol. 2004; 68:125-34; Kugler et al. 2008; Zeno et al., 2009; Shargorodsky et al. Apoptosis. 2012; 17:647-65), reactive oxygen species (ROS) generation as a measure of oxidative stress (Veenman et al. 2008; Zeno et al. 2009); TSPO knockdown (Levin et al. 2005; Zeno et al. 2009); expression levels of mitochondrial TSPO and associated proteins (Veenman et al. 2002; Levin et al. 2005; Veenman et al. 2008); gene expression with RT-PCR and microarray analysis (Bode et al. 2012; Veenman et al. 2012). Parameters of inflammation, immune response, migration, and the cell cycle are also tested. All these approaches can also be applied for quality control of the compounds.
Compound 1 is very effective at a concentration of 25 μM in this model (in order to achieve the same effect with the classical TSPO ligand PK 11195 a concentration of 50 μM has to be applied (data not shown).

U118MG cells [2] = experiment: ROS generation at mitochondrial levels induced by glutamate (NAO dye); assay type: cell-based, human
Source text: as §1
Next, the fluorescent dye 10-N-Nonyl-Acridine Orange (NAO) was applied to measure reactive oxygen species (ROS) generation at mitochondrial levels. […]

R6-2 mice = experiment: Lifespan of R6-2 mice, transgenic model for Huntington Disease; assay type: in vivo, mouse; conditions: daily s.c. injections 5 days a week from week 5, vs DMSO and saline
Source text: For the assays described herein systemic injections of kainic in rats were applied and also contusion (Veenman et al. 2002; Soustiel et al. Neuropathol Appl Neurobiol. 2008; Soustiel et al. Exp Neurol. 2008). These models present very well defined cell death in the brain. Cell death in the brain is the major pathological characteristic of progressing neurodegeneration common to brain diseases. As the compounds of the present invention are designed to prevent cell death in the brain as a consequence of disease and progressing brain damage after injury, including behavioral impairments, animal models displaying cell death in the brain are the models of choice for displaying the protective capabilities of the compounds of the invention. For these reasons the R6-2 model for Huntington Disease was chosen to test the effectiveness of Compound 1 and to compare the effectiveness of Compound 1 with those of the compound of U.S. Pat. No. 8,541,428 (Cpd A) and with the classical TSPO ligand PK 11195, as well as other compounds disclosed herein. Compounds 5 and 6 were also tested in the same R6-2 model.
R6-2 is a transgenic mouse model for Huntington Disease. Huntington Disease in humans is a hereditary neurodegenerative disease affecting motor performance and finally leading to death of the patients having the disease. R6-2 mice (˜120 CAG repeats B6CBA-Tg(HDexon1)62 Gpb/3J) mice were used for the experiments described below. For this purpose, mice obtained from the Jackson Laboratory (ME) were bred. In particular: males genotype: Hemizygous for Tg(HDexon1)62 Gpb, and females from the wildtype background strain B6CBAF1/J were bred according to the protocol of Jackson Laboratory. The male heterozygote offspring (R6-2 mice) were used for determining life span and motor activity, with and without drug treatment. Drug treatment consisted of daily (5 continuous days a week) subcutaneous injections of mice with 20 μl of: saline (sham control), vehicle DMSO (vehicle control), classic TSPO ligand PK 11195 (15 mg/kg), prior art Compound A (15 mg/kg), Compound 1 (15 mg/kg), and compound 1 (7.5 mg/kg). Drug treatment started on week 5 after birth. Quantities were used according to previous studies regarding TSPO ligands.
Apart from the behavioral experiments, mice were observed daily, and the day of death was noted. Behavioral experiments included distance covered in an open field apparatus, and tremor measurements.
R6-2 mice were used as previously described in Example 5. In one experiment, treatment consisted of daily (5 continuous days per week) subcutaneous injections of mice with 20 μl of vehicle DMSO (control, n=10) and Compound 6 (7.5 mg/kg, n=12). In a separate experiment, compound 5 (7.5 mg/kg, n=5) was tested, compared to DMSO control (n=5).

Stability on storage = assay type: physicochemical; conditions: several months of storage

Chain of TSPO (P30536 whole entry): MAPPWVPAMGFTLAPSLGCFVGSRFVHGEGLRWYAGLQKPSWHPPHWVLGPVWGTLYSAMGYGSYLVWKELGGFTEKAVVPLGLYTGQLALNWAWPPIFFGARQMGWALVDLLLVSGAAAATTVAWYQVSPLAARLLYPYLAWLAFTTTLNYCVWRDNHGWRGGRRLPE

CCN(C)C(=O)Oc1nc(-c2ccccc2)nc2ccccc12 [Compound 1, 2-phenylquinazolin-4-yl ethyl(methyl)carbamate]
Ki (TSPO): ~60 nM | concentration very effective in preventing ΔΨm collapse (U118MG cells [1]): 25 µM | prevention of ΔΨm collapse induced by glutamate (U118MG cells [1]): prevents collapse | prevention of ΔΨm collapse induced by glutamate (U118MG cells [1]; listed as Cpd 1): prevented | ROS generation at mitochondrial levels induced by glutamate (U118MG cells [2]): prevents ROS generation | ROS generation at mitochondrial levels induced by glutamate (U118MG cells [2]; listed as Cpd 1): attenuated | effect on lifespan (R6-2 mice): increases average lifespan; also recorded: extends the life span | effect on lifespan (R6-2 mice; listed as compound 1): enhanced lifespan | stability on storage (Stability on storage): stable over several months of storage
